Measured values as given in PubChem BioAssay AID256 (DTP/NCI, 2004).
Several values for one entry are separate records, joined by “and”; a condition that tells them apart may be missing. Equal values may be shown once. Inconclusive results and toxic doses are left out.

Tested on: CD2F1 mice, L1210 leukemia ip, survival T/C
Assay: NCI In Vivo Anticancer Drug Screen. Data for tumor model L1210 Leukemia (intraperitoneal) in CD2F1 (CDF1) mice
Details: higher = longer survival
In short: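 Activity against a transplanted murine tumor was judged by comparing the compound group with a vehicle group. The outcome in the treated animals was divided by that in the controls.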

NC(=O)c1cnn2ccn(C3OC(CO)C(O)C3O)c12 (centres undefined)
T/C (endpoint: median survival time, dose: 9.63 mg/kg/injection, schedule: Q01DX005 (ip), vehicle: water): 102 % of control | T/C (endpoint: median survival time, dose: 19.25 mg/kg/injection, schedule: Q01DX005 (ip), vehicle: water): 94 % of control | T/C (endpoint: median survival time, dose: 38.5 mg/kg/injection, schedule: Q01DX005 (ip), vehicle: water): 104 % of control | T/C (endpoint: median survival time, dose: 77.0 mg/kg/injection, schedule: Q01DX005 (ip), vehicle: water): 100 % of control | T/C (endpoint: median survival time, dose: 154.0 mg/kg/injection, schedule: Q01DX005 (ip), vehicle: water): 93 % of control

OCC1OC(n2cnc3c(N4CCCC4)ncnc32)C(O)C1O (centres undefined)
T/C (endpoint: mean survival time, dose: 12.5 mg/kg/injection, schedule: Q01DX005 (ip), vehicle: other): 101 % of control | T/C (endpoint: mean survival time, dose: 25.0 mg/kg/injection, schedule: Q01DX005 (ip), vehicle: other): 101 % of control | T/C (endpoint: mean survival time, dose: 50.0 mg/kg/injection, schedule: Q01DX005 (ip), vehicle: other): 108 % of control | T/C (endpoint: mean survival time, dose: 100.0 mg/kg/injection, schedule: Q01DX005 (ip), vehicle: other): 106 % of control | T/C (endpoint: mean survival time, dose: 200.0 mg/kg/injection, schedule: Q01DX005 (ip), vehicle: other): 96 % of control

Nc1nc(N)c2c(=O)c(CNc3ccc(C(=O)NC(CCC(=O)O)C(=O)O)cc3)c[nH]c2n1 (centres undefined)
T/C (endpoint: mean survival time, dose: 0.25 mg/kg/injection, schedule: Q01DX005 (ip), vehicle: sodium bicarbonate): 104 % of control | T/C (endpoint: mean survival time, dose: 0.5 mg/kg/injection, schedule: Q01DX005 (ip), vehicle: sodium bicarbonate): 119 % of control and 100 % of control | T/C (endpoint: mean survival time, dose: 1.0 mg/kg/injection, schedule: Q01DX005 (ip), vehicle: sodium bicarbonate): 113 % of control and 100 % of control | T/C (endpoint: mean survival time, dose: 2.0 mg/kg/injection, schedule: Q01DX005 (ip), vehicle: sodium bicarbonate): 98 % of control and 106 % of control | T/C (endpoint: mean survival time, dose: 4.0 mg/kg/injection, schedule: Q01DX005 (ip), vehicle: sodium bicarbonate): 91 % of control and 104 % of control | T/C (endpoint: mean survival time, dose: 16.0 mg/kg/injection, schedule: Q01DX005 (ip), vehicle: sodium bicarbonate): 98 % of control

CCC1C(=O)OCc2c1cc1n(c2=O)Cc2cc3ccccc3nc2-1 (centres undefined)
T/C (endpoint: mean survival time, dose: 7.39 mg/kg/injection, schedule: Q01DX001 (ip), vehicle: saline): 101 % of control | T/C (endpoint: mean survival time, dose: 11.1 mg/kg/injection, schedule: Q01DX001 (ip), vehicle: saline): 101 % of control | T/C (endpoint: mean survival time, dose: 16.6 mg/kg/injection, schedule: Q01DX001 (ip), vehicle: saline): 100 % of control | T/C (endpoint: mean survival time, dose: 25.0 mg/kg/injection, schedule: Q01DX001 (ip), vehicle: saline): 111 % of control

C=CCC(C#N)(CC=C)C(=O)OCC
T/C (endpoint: mean survival time, dose: 50.0 mg/kg/injection, schedule: Q01DX001 (ip), vehicle: Klucel (hydroxypropylcellulose) (HPC)): 102 % of control | T/C (endpoint: mean survival time, dose: 100.0 mg/kg/injection, schedule: Q01DX001 (ip), vehicle: Klucel (hydroxypropylcellulose) (HPC)): 96 % of control | T/C (endpoint: mean survival time, dose: 200.0 mg/kg/injection, schedule: Q01DX001 (ip), vehicle: Klucel (hydroxypropylcellulose) (HPC)): 102 % of control

O=C1C=CC(=O)N1c1ccc(Oc2ccc(Cl)cc2)cc1
T/C (endpoint: mean survival time, dose: 50.0 mg/kg/injection, schedule: Q01DX009 (ip), vehicle: saline with Tween-80): 103 % of control | T/C (endpoint: mean survival time, dose: 100.0 mg/kg/injection, schedule: Q01DX009 (ip), vehicle: saline with Tween-80): 107 % of control | T/C (endpoint: mean survival time, dose: 200.0 mg/kg/injection, schedule: Q01DX009 (ip), vehicle: saline with Tween-80): 88 % of control

CCN(CC)c1ncnc2nncnc12
T/C (endpoint: mean survival time, dose: 100.0 mg/kg/injection, schedule: Q01DX001 (ip), vehicle: carboxymethylcellulose (CMC)): 101 % of control | T/C (endpoint: mean survival time, dose: 200.0 mg/kg/injection, schedule: Q01DX001 (ip), vehicle: carboxymethylcellulose (CMC)): 96 % of control

NC(CSC(c1ccccc1)(c1ccccc1)c1ccc(F)cc1)C(=O)O (centres undefined)
T/C (endpoint: mean survival time, dose: 25.0 mg/kg/injection, schedule: Q01DX009 (ip), vehicle: saline): 181 % of control | T/C (endpoint: mean survival time, dose: 50.0 mg/kg/injection, schedule: Q01DX009 (ip), vehicle: saline): 192 % of control

Cc1ccc(N2CCOC2=O)cc1N1CCOC1=O
T/C (endpoint: mean survival time, dose: 25.0 mg/kg/injection, schedule: Q01DX009 (ip), vehicle: other): 100 % of control | T/C (endpoint: mean survival time, dose: 50.0 mg/kg/injection, schedule: Q01DX009 (ip), vehicle: other): 105 % of control | T/C (endpoint: mean survival time, dose: 100.0 mg/kg/injection, schedule: Q01DX009 (ip), vehicle: other): 102 % of control

C1CCC2(CC1)OCCS2
T/C (endpoint: mean survival time, dose: 100.0 mg/kg/injection, schedule: Q01DX001 (ip), vehicle: saline): 96 % of control | T/C (endpoint: mean survival time, dose: 200.0 mg/kg/injection, schedule: Q01DX001 (ip), vehicle: saline): 94 % of control

CC1=Nc2cc(C)c(C)cc2N2C1=CC1=C(C(=O)c3cc4ccccc4cc3C1=O)C2C (centres undefined)
T/C (endpoint: mean survival time, dose: 25.0 mg/kg/injection, schedule: Q04DX003 (ip), vehicle: saline with Tween-80): 97 % of control | T/C (endpoint: mean survival time, dose: 50.0 mg/kg/injection, schedule: Q04DX003 (ip), vehicle: saline with Tween-80): 108 % of control | T/C (endpoint: mean survival time, dose: 100.0 mg/kg/injection, schedule: Q04DX003 (ip), vehicle: saline): 110 % of control | T/C (endpoint: mean survival time, dose: 200.0 mg/kg/injection, schedule: Q04DX003 (ip), vehicle: saline): 107 % of control
